According to patent US7524973B2, “Nitrate esters of phenylaminothiophenacetic acid derivatives” (Altana Pharma AG, priority 2003, dated 2009):

Experiments:
COX-1 = target: T1, COX-1 (Homo sapiens, UniProt P23219); assay: In vitro Cox-1 assay (whole blood, TxB2); format: cell-based; details: fresh blood without anticoagulant, clotting 1 h at 37° C., TxB2 immunoassay; read-out: Inhibition of COX-1 activity [measured as pIC50] (converted)
T1 construct: Fresh blood was collected into vacutainers containing no anticoagulants; from tissue; host or cells: fresh whole blood without anticoagulant, allowed to clot
Method: Fresh blood was collected into vacutainers containing no anticoagulants. Aliquots of 450 μl were immediately transferred to deep well plates preloaded with 1 μl of either DMSO or a test compound at final concentration of 100 μM-10 nM. In addition 50 μl of Hydroxylamine/PBS were added and the tubes were vortexed and incubated at 37° C. for 1 h to allow the blood to clot. At the end of incubation, serum was obtained by centrifugation (2000 g/5 min) and the supernatant was assayed for TxB2 using a immunoassay kit (RD Systems, Germany) according to the manufactures instruction.
(§1) The data were analysed from 2-3 independent dose response curves with a nonlinear estimation program using GRAPHPAD/Prism and given as pIC50

COX-2 = target: T2, COX-2 (Homo sapiens, UniProt P35354); assay: In vitro Cox-2 assay (LPS-stimulated whole blood, PGE2); format: cell-based; details: heparinized blood, LPS 24 h, PGE2 immunoassay; read-out: Inhibition of COX-2 activity [measured as pIC50] (converted)
T2 construct: Fresh blood was collected in heparinized (8 U/ml, Roche, Switzerland) tubes; from tissue; host or cells: heparinized fresh whole blood stimulated with LPS for 24 h
T2 sequence (P35354 18-604): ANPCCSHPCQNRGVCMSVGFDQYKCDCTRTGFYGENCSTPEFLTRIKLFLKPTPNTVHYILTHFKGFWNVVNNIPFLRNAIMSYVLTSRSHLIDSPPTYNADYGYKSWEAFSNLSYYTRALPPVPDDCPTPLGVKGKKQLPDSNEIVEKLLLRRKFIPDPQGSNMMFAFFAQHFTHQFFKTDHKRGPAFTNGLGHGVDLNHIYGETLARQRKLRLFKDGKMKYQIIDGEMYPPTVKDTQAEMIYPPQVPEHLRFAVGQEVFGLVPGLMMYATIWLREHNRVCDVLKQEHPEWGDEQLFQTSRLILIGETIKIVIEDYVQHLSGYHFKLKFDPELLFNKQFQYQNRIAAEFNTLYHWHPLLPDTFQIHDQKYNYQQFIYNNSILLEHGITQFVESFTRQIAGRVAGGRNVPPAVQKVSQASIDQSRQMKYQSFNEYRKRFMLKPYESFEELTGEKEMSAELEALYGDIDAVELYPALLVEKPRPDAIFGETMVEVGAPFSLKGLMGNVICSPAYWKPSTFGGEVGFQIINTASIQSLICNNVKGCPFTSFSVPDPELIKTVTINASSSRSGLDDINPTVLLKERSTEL
Method: Fresh blood was collected in heparinized (8 U/ml, Roche, Switzerland) tubes by venipuncture from both male and female volunteers with consent The subjects had no apparent inflammatory conditions and had not taken any NSAIDs for the last 7 days prior to blood collection. 450 μl aliquots of blood were incubated in deep wells with either 1 μl vehicle (DMSO) or 1 μl of test compound at a final concentration varying from 100 μM-10 nM for 15 min at 37° C. This was followed by incubation of the blood with 50 μl lipopolysaccharide (LPS, Sigma, Germany) 10 μg/ml in 0.1% Hydroxylamine/PBS (Sigma) for 24 h. At the end of incubation the blood was centrifuged at 2000 g for 5 min and […] supernatant was assayed for PGE2 using a immunoassay kit (RD Systems, Germany )
as §1

T1 sequence (P23219 24-599): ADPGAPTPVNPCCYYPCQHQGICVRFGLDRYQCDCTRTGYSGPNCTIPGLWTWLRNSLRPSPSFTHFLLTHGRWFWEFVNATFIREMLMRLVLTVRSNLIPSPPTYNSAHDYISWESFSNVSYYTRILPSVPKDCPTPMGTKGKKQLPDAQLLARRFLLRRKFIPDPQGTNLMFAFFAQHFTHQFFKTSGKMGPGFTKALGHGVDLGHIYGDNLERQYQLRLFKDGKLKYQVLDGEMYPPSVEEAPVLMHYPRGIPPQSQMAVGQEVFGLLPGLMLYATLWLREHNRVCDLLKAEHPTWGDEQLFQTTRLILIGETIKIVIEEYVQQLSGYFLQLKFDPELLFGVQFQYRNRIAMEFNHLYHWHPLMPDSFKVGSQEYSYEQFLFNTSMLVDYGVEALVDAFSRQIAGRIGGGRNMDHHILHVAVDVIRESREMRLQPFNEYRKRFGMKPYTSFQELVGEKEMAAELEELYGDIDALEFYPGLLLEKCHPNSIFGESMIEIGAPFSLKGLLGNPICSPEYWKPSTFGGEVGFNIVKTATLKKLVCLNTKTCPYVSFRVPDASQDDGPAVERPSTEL

O=C(Cc1cscc1Nc1c(Cl)cccc1Cl)OCCCCO[N+](=O)[O-] [Compound 1, [4-(2,6-Dichlorophenylamino)-thiophen-3-yl]-acetic acid 4-nitrooxybutyl ester]
IC50 (COX-1): 89.1 nM
IC50 (COX-2): 72.4 nM
